# Measurements taken from US7763588B2, “Method for increasing cognitive function and neurogenesis” (The Salk Institute for Biological Studies, priority 2003, dated 2010).
# “Also recorded” adds a separate entry of the source.
# Assays:
# [1] = system: female C57BL/6 mice; assay: Morris water maze spatial learning; type: in vivo; conditions: Mars 20 mg/kg or PBN 30 mg/kg daily
# Description: (§1) Ninety-six female C57BL/6 mice, ten weeks old were purchased from Harlan SD and housed individually with a reversed day/night cycle: lights on at 10 p.m. and off at 10 a.m. The mice were divided into six groups of 16 mice each: Control/Saline (CS) Control/PBN (CP), Control/Mars (CM), Runner/Saline (RS), Runner/PBN (RP) and Runner/Mars (RM). Runners were moved into a cage with a running wheel (Lafayette Instruments) for 4 hours per day, from 10 a.m. to 2 p.m. The mice received daily injections of saline, N-tert-Butyl-phenylnitrone (PBN, 30 mg/kg) or 3′- and 4′-methylated epicatechin 1:1 (Mars, 20 mg/kg).
# (§2) On day 10, 7 animals from each group were given an overdose of anesthetics and perfused transcardially with cold 4% paraformaldehyde in 0.1 M PBS to study the effect of the drugs on cell proliferation. […] On day 38 the remaining mice were perfused.
# To assess spatial learning the mice were trained with two trials per day over eight days on the Morris water maze as described by Morris, J. Neurosci. Methods 11: 47-60 (1984), which is incorporated herein by reference in its entirety. The platform was hidden 1 cm below the surface of water, made opaque with white non-toxic paint. The starting points were changed every day. Each trial lasted either until the mouse had found the platform or for a maximum of 40 seconds. All mice were allowed to rest on the platform for 10 seconds at the end of each trial. The latency to the platform, length of swim path and swim speed was recorded semi-automatically by a video tracking system (Ethovision, Noldus).
# To assess memory function mice were trained in the water maze for 8 days with 2 trials per day between days 29-36 of the experiment. […] However, when measuring swim speed, there was also a significant difference between the groups (F(5,47)=3.37, p<0.01), raising the possibility that the RM and RP animals performed better due enhanced motor rather than cognitive skills.
# To further investigate whether the RM and RP had improved learning, the swimming distance was analyzed for all trials. There was no significant difference between the groups in an overall analysis (F(5,47)=1.55, p=0.19).
# [2] = system: dentate gyrus; assay: BrdU-positive cell proliferation in the dentate gyrus (day 10); type: in vivo, mice; conditions: runners, Mars 20 mg/kg or PBN 30 mg/kg daily
# Description: (§3) During the first nine days animals also received daily intraperitoneal BrdU injections (Sigma, St. Louis, Mo.); dissolved in 0.9% NaCl, filtered sterile at 0.2 μm, 50 μg/g body weight at 10 mg/ml) to label dividing cells.
# as §2
# To confirm neurogenesis, immunohistochemistry for BrdU was performed on a 1:6 series of free-floating 40-μm coronal sections that were pretreated for BrdU immunohistochemistry by denaturing DNA, as described previously by van Praag et al., Procl. Natl. Acad. Sci. USA 96: 13427-13431 (1999), which is incorporated herein by reference in its entirety. The antibody used was mouse anti-BrdU (Boehringer Mannheim, Indianapolis, Ind.) 1:400. […] Cells were counted at 40× using an upright brightfield microscope (Olympus).
# BrdU-positive cells were analyzed in mice that were allowed to survive for the first 10 days of the experiment. At this time point cell proliferation, but not neurogenesis can be assessed, since it takes about a month for a newly born cell to become a neuron (van Praag et al., Nature 415: 1030-1034 (2002), which is incorporated herein by reference in its entirety).
# [3] = system: dentate gyrus; assay: Cell survival and neurogenesis in the dentate gyrus (BrdU labeling, day 38); type: in vivo; conditions: mice that exercise; Mars 20 mg/kg or PBN 30 mg/kg daily
# Description: as §3, §2
# To confirm neurogenesis, immunohistochemistry for BrdU was performed on a 1:6 series of free-floating 40-μm coronal sections that were pretreated for BrdU immunohistochemistry by denaturing DNA, as described previously by van Praag et al., Procl. Natl. Acad. Sci. USA 96: 13427-13431 (1999), which is incorporated herein by reference in its entirety. The antibody used was mouse anti-BrdU (Boehringer Mannheim, Indianapolis, Ind.) 1:400. To visualize the BrdU-labeled cells, staining for BrdU with the peroxidase method was used (ABC system, with biotinylated donkey anti-mouse antibodies and diaminobenzadine as chromogen; Vector Laboratories, Burlingame, Calif.). Cells were counted at 40× using an upright brightfield microscope (Olympus).
# We are currently processing the tissue of the animals that survived for 38 days to assess the effects of the drugs and exercise on the number of newborn neurons. […]
# [4] = system: female C57BL/6 mice; assay: Running wheel activity (wheel revolutions); type: in vivo; conditions: runners, wheel about 4 hours daily after injection; Mars 20 mg/kg or PBN 30 mg/kg daily; compared with Runner/Saline
# Description: as §1, with “mg/kg). Mice in the running groups were placed in cages with wheels after drug injection for about 4 hours daily.” for “mg/kg).”
smiles,measurement,setting,value
"CC(C)(C)[N+]([O-])=Cc1ccccc1 [PBN, N-tert-Butyl-phenylnitrone]",swim speed,[1]; controls (no running wheel),no difference between the runners and CP; also recorded: significantly faster than CM
same,spatial memory performance / learning,[1]; mice that exercise,enhances spatial memory performance; also recorded: enhanced learning
same,"latency to the platform, analysis of variance per day","[1]; runners, 8 days of testing",significantly shorter latencies from day 6 onwards
same,swim speed,[1]; runners,swam faster than CS and CM animals
same,average number of BrdU-labeled cells per section (cell proliferation / cell genesis),[2],the greatest increase; also recorded: more cell genesis in these animals than in all the other groups
same,neurogenesis,[3],enhances neurogenesis
same,number of wheel revolutions,[4],no difference between RS and RP
